Reference: PubChem BioAssay AID1645868 (Buhrlage Lab, Dana-Farber Cancer Institute and Novartis …, 2021)
Calls of active or inactive are those of the source.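 The calls were made as follows: active = maximal percent inhibition of the deubiquitinase OTUD3 of at least 30% across the tested doses; inactive = the rest.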

Molecular target: OTU domain-containing protein 3 (Homo sapiens) (UniProt Q5T2D3)
Test: Validation of screening hits, potency titration, in vitro enzymatic, OTU domain-containing protein 3 DUB inhibitors (AID 1645868)
Conditions: purified OTUD3, ubiquitin-rhodamine cleavage fluorescence, 2 h

Sequence of OTU domain-containing protein 3 (Homo sapiens) (Q5T2D3 whole entry, looked up, the tested form may be a part): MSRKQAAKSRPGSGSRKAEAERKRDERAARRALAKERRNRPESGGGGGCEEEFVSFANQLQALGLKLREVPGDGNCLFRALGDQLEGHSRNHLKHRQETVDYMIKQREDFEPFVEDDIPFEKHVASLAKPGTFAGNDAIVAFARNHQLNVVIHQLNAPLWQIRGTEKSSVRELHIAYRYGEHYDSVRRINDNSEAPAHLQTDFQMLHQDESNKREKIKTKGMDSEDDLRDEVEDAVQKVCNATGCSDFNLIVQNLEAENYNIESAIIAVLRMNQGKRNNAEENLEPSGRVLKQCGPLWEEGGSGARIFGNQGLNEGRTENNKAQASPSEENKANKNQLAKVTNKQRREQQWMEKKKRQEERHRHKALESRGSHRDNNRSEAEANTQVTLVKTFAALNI

Compound | IC50
Cn1c(CCN2CCCC2)nc2cc(NC(=O)c3ccccc3)ccc21 | > 50 µM (inactive)
CC(Sc1n[nH]c2nc3ccccc3n12)C(=O)Nc1ccc2c(c1)OCCO2 (stereo unspecified) | > 50 µM (inactive)
CC(C)(C)c1cc(C[C@@H]2C[C@H](NC(=O)N3CCOCC3)C2(C)C)no1 | > 50 µM (inactive)
COc1cccc(-n2nnc(C(=O)Nc3ccc(C)c(C)c3)c2C)c1 | > 50 µM (inactive)
Cc1ccccc1-c1nnc(-c2ccc(C(=O)NCc3ccccc3F)cc2)o1 | 31.6 µM
CCc1noc(Cn2cnc3c4ccccc4n(CC(=O)NC4CCCCC4)c3c2=O)n1 | > 50 µM (inactive)
Cc1cc(=O)n2c3c(c4c(cc13)c(CO)cc(=O)n4C)OC2 | > 50 µM (inactive)
COc1ccc(OC)c(NC(=O)c2ccc(-n3nnnc3SC)cc2)c1 | > 50 µM (inactive)
O=C(CSc1nnc(-c2ccc3c(c2)OCO3)n1-c1ccccc1)OCC(=O)c1ccccc1 | > 50 µM (inactive)
N#Cc1ccc(-c2ccc(OCC(=O)Nc3ccc4c(c3)OCO4)cc2)cc1 | > 50 µM (inactive)
COc1ccccc1CNC(=O)Nc1cccc2ccccc12 | 44.7 µM
Cc1ccc(-n2cc(C(=O)NCc3cccnc3)nn2)cc1C | 26.5 µM
COc1ccc(C)cc1NC(=O)COc1ccc2c(c1)OCO2 | > 50 µM (inactive)
CCCCNc1nc2c(-c3ccccc3)nnn2c2ccccc12 | > 50 µM (inactive)
COC(=O)c1c(C)[nH]c(C(=O)C(C)OC(=O)CCC2CCCC2)c1C (stereo unspecified) | > 50 µM (inactive)
Cc1ccccc1NC(=O)c1ccc(N2CCCCC2)nn1 | > 50 µM (inactive)
COc1cccc(N2C(=O)N(CC(=O)NCc3ccc(Cl)cc3)c3ccccc3S2(=O)=O)c1 | 20 µM
COc1ccc(CN=C2NS(=O)(=O)C(c3ccc(F)cc3)=C2C)cc1OC | > 50 µM (inactive)
COc1ccc(C(=O)CCN2CCOCC2)cc1[N+](=O)[O-] | > 50 µM (inactive)
Cn1cc(-c2cnc(-c3cccc(F)c3)nc2)cc1C(=O)NCc1cccnc1 | > 50 µM (inactive)
O=C(NCC(c1cccnc1)N1CCc2ccccc2C1)C(=O)Nc1ccc2c(c1)OCO2 (stereo unspecified) | 37.7 µM
O=C(CC1C(=O)N(Cc2cccnc2)c2nc3ccccc3n21)Nc1cccc2ccccc12 (stereo unspecified) | > 50 µM (inactive)
O=C(Nc1cc(F)c2nc(N3CCOCC3)ccc2c1)c1ccc(Br)o1 | > 50 µM (inactive)
CCCCNC(=O)c1cc2cccnc2n(Cc2ccccc2)c1=O | > 50 µM (inactive)

Compound | IC50
Cc1nc(-c2ccccn2)sc1C(=O)Nc1ccc(C#N)cc1 | > 50 µM (inactive)
Cc1cc(C(=O)N2CCOC3(CC=CCN(CCc4ccccc4)C3=O)C2)n2nccc2n1 (stereo unspecified) | > 50 µM (inactive)
CCn1ccc2c(cc(C(=O)Nc3cc(F)ccc3F)n2C)c1=O | > 50 µM (inactive)
COc1cccc2c1NC(=O)C21CCN(C(=O)Nc2cccc(C)c2)CC1 | 13.8 µM
Cc1cc(C(=O)Nc2ccc3nc(N4CCN(c5ncccn5)CC4)cc(C)c3c2)ccc1[N+](=O)[O-] | > 50 µM (inactive)
CCc1nc(-c2cc(C(=O)N3CCOCC3)c3ccccn23)cs1 | > 50 µM (inactive)
Cn1c(SCCOc2ccc(Cl)cc2)nnc1-c1ccc2c(c1)OCCO2 | > 50 µM (inactive)
CC(C)(C)c1ccc(C(=O)Nc2ccc(Oc3cccnc3)nc2)cc1 | > 50 µM (inactive)
Cc1cc(C)c(NC(=O)CSc2nc3nccnc3c(=O)n2Cc2ccccc2Cl)c(C)c1 | > 50 µM (inactive)
CCCCN(CC)c1ncnc2c1sc1nc(-c3ccco3)c3c(c12)CC(C)(C)OC3 | > 50 µM (inactive)
CC12c3ccc4c(c3C(=O)c3occ(c31)C(=O)CC2O)CCC4=O (stereo unspecified) | > 50 µM (inactive)
CCCc1nc2sc3c(NCCCN4CCOCC4)ncnc3c2c2c1CCC2 | > 50 µM (inactive)
CC(C)NS(=O)(=O)c1ccc(OCC(=O)N2CCC(Cc3ccccc3)CC2)cc1 | > 50 µM (inactive)
CC(c1ccccc1)c1nc(-c2ccc(=O)[nH]c2)no1 (stereo unspecified) | > 50 µM (inactive)
CC1(C)Cc2c(sc3nc(Cc4ccccc4)nc(SCC(=O)Nc4ccccc4)c23)CO1 | 6.75 µM
Cc1cccc(NC(=O)Cn2c(N3CCOCC3)nc3cc(C)n(C)c3c2=O)c1 | 40.6 µM
Cc1cccc2sc(NC(=O)c3nnn(-c4ccc(F)cc4)n3)nc12 | > 50 µM (inactive)
COc1ccc(CNC(=O)c2[nH]nc3c2CCc2ccccc2-3)cc1 | > 50 µM (inactive)
CC(C)(C)c1ccc(Cn2nnc3c(=O)[nH]c(C4CCN(S(=O)(=O)c5ccc(S(=O)(=O)NC6CC6)cc5)CC4)nc32)cc1 | > 50 µM (inactive)
O=C(Nc1nc2ccccc2s1)c1ccc2c(c1)C(=O)N(Cc1cccnc1)C2=O | 38.5 µM
CN1CCN(C(=O)c2ccn(-c3ccc4ccc(-c5cnn(C)c5)cn34)n2)CC1 | > 50 µM (inactive)
Fc1ccccc1N1CCN(c2ncc3c(n2)CCN(Cc2ccccn2)C3)CC1 | > 50 µM (inactive)
COc1ccc2nc(SCC(=O)Nc3ccc(NC(C)=O)cc3)c(C)cc2c1 | 31.9 µM
COc1cccc2cc(C(=O)Nc3nc(-c4ccncc4)cs3)oc12 | 1.51 µM

Compound | IC50
O=c1cc(CNc2ccc(Br)cc2)nc2nc(-c3ccccc3)[nH]n12 | > 50 µM (inactive)
CCN1CCCC1CN(Cc1cc2cc(OC)ccc2[nH]c1=O)C(=O)NCc1ccccc1 (stereo unspecified) | > 50 µM (inactive)
COc1ccc(S(=O)(=O)Nc2ccc(Nc3ccc(-n4cccn4)nn3)cc2)cc1 | > 50 µM (inactive)
Cc1cc(C)c2nc3c(cc2c1)CN(Cc1ccco1)C(=O)O3 | > 50 µM (inactive)
O=C(O)CCCCCN1C(=O)CC(c2ccc(Cl)cc2)CC1=O | 46.9 µM
Nc1c(-c2ccc(Cl)cc2)cnc2nc(Sc3ncc(C(F)(F)F)cc3Cl)nn12 | > 50 µM (inactive)
CC(C)c1cc(NCc2ccccc2)n2nc(-c3cccnc3)nc2n1 | 25.4 µM
CSc1ccc(CNC(=O)CC2CCN(S(=O)(=O)c3ccc(C)cc3)CC2)cc1 | 30.7 µM
COc1ccc(NC(=O)CN2CCN(c3ccc(C(C)=O)cc3)CC2)cc1S(=O)(=O)N1CCCCC1 | > 50 µM (inactive)
CC(C)N1C[C@@H]2C[C@H](NS(=O)(=O)c3cccc(C#N)c3)CN2Cc2ccccc21 | > 50 µM (inactive)
COc1ccc(Cl)cc1NC(=O)c1cc(-c2ccccn2)n[nH]1 | 2.58 µM
COc1cc(O)c2c(=O)c(-c3ccc(O)cc3)coc2c1 | > 50 µM (inactive)
O=C(Nc1cc(F)c2nc(N3CCCC3)ccc2c1)c1ccco1 | > 50 µM (inactive)
N#Cc1c(-c2ccccc2)ccn(Cc2cccc(C(F)(F)F)c2)c1=O | > 50 µM (inactive)
CC(NC(=O)c1ccccc1)c1nc2ccccc2n1CC(=O)Nc1ccc2c(c1)OCO2 (stereo unspecified) | 3.53 µM
CC(C)Cc1nc2sc3c(NCc4ccccc4)ncnc3c2c2c1COC(C)(C)C2 | 31.9 µM
COc1ccc(NC(=O)CS(=O)(=O)c2[nH]c(-c3ccc(C)cc3)nc2-c2ccccc2)cc1Cl | > 50 µM (inactive)
CC1=C(c2ccc(C)c(C)c2)S(=O)(=O)NC1=NCC(=O)NCCCc1ccccc1 | 46.8 µM
O=C(COC(=O)CCc1ccc(S(=O)(=O)N2CCOCC2)cc1)Nc1ccc2c(c1)OCCO2 | > 50 µM (inactive)
N[C@@H](Cc1ccccc1)C(=O)N1CCC2(CC1)CN(C(=O)c1ccc(Cl)cc1)CCO2 | > 50 µM (inactive)
CCCC1Cc2c(sc3nc(SCC)nc(N)c23)CO1 (stereo unspecified) | 26.9 µM
CC(=O)c1ccccc1NC(=O)COc1ccc(-c2ccc(C#N)cc2)cc1 | > 50 µM (inactive)
CCCC(=O)N1CCC2(CC1)Nc1ccccc1NC2=O | > 50 µM (inactive)
Cc1ccccc1NC(=O)c1ccn(COc2ccc(Cl)cc2)n1 | > 50 µM (inactive)

Compound | IC50
Cc1ccc(C(=O)Nc2ccc(S(=O)(=O)N3CCCC3)cc2)cc1Br | > 50 µM (inactive)
O=C(Nc1ccc(NS(=O)(=O)c2ccc3c4c(cccc24)CC3)cc1)c1ccccc1 | > 50 µM (inactive)
O=C(NCc1ccc2c(c1)OCO2)c1cc2c(s1)-c1ccccc1OC2 | 21.7 µM
Cc1ccc(C(=O)NCc2ccc(C(=O)Nc3ccc(C)c(C)c3)o2)cc1 | > 50 µM (inactive)
Nc1c(C(=O)NCc2ccc3c(c2)OCO3)nnn1Cc1ccc(Br)cc1F | 19.7 µM
Cc1ccc(C)c(NC(=O)CSc2nnc(-c3ccccn3)n2Cc2ccco2)c1 | > 50 µM (inactive)
CCn1ccc2c(cc(C(=O)Nc3ccccc3F)n2C)c1=O | > 50 µM (inactive)
CC1=C(c2ccc(F)cc2)S(=O)(=O)NC1=NCC(=O)Nc1ccc(F)cc1 | > 50 µM (inactive)
COc1ccccc1-c1nc2c3c(C)c(C)n(Cc4cccnc4)c3ncn2n1 | > 50 µM (inactive)
CCN(CC)C(=O)CN1CCCC(c2ncncc2-c2cc(C)no2)C1 (stereo unspecified) | > 50 µM (inactive)
Cc1nc2cc(C(=O)NCCC3=CCCCC3)ccc2n1-c1cccc(F)c1 | > 50 µM (inactive)
COC(=O)COc1ccc(/C=N/NC(=O)c2ccc(CN3CCc4ccccc4C3)cc2)cc1 | 43.8 µM
O=C(/C=C/c1ccccc1)N1CCN(C2=NS(=O)(=O)c3ccccc32)CC1 | > 50 µM (inactive)
CCOc1ccc(NC(=O)COc2cccc3c2CCN(CC)C3=O)cc1 | > 50 µM (inactive)
O=C(CSc1nnc2n1CCCCC2)Nc1ccc2[nH]c(=O)[nH]c2c1 | > 50 µM (inactive)
CCC(=O)N1c2ccccc2NC2=C(C(=O)CC(c3ccccc3OCc3ccccc3)C2)C1c1ccccc1 (stereo unspecified) | 12.2 µM
Cc1sc(NC(=O)CN2CCc3ccccc3C2)nc1-c1ccc2c(c1)CCN2C(=O)C1CCCCC1 | > 50 µM (inactive)
CCC(C)Oc1cccc(C(=O)Nc2ccc(CN3CCOCC3)cc2)c1 (stereo unspecified) | > 50 µM (inactive)
CCOC(=O)c1cn(C2CC2)c2cc(N3CCNCC3)c([N+](=O)[O-])cc2c1=O | > 50 µM (inactive)
C[C@@H]1OC2=C(C(=O)c3cccc(O)c3C2=O)[C@H](O)[C@@H]1O | 4.45 µM
Cc1nnc(Sc2cc(C(=O)NCCN3CCCC3)c3ccccc3n2)s1 | > 50 µM (inactive)
COc1ccc(/C=C/C(=O)Nc2ccc3c(c2)OCCO3)cc1Br | > 50 µM (inactive)
Cc1ccc(C)c(-c2cc3c(=O)n(Cc4noc(CN5CCCCC5)n4)ccn3n2)c1 | > 50 µM (inactive)
CC1=C(c2ccc(Cl)cc2)S(=O)(=O)NC1=NCC(=O)Nc1ccc(F)cc1 | > 50 µM (inactive)
